How the values were obtained:
CDK2/cyclin A = CDK2/cyclin A (Homo sapiens, UniProt P24941); assay: CDK2/cyclinA In Vitro Kinase Assay; assay type: biochemical; conditions: 10 μM of each compound; Histone H1 substrate; 0.02 mM ATP; activity as percentage of controls with DMSO alone, mean of duplicates
Method: The inhibitory properties of the compounds of Examples 19, 24, and 31 were assayed in an in vitro CDK2/cyclinA assay at 10 μM of each compound in DMSO. CDK2/cyclin A (5-20 mU diluted in 50 mM Hepes pH 7.5, 1 mM DTT, 0.02% Brij35, 100 mM NaCl) was assayed against Histone H1 in a final volume of 25.5 μl containing 50 mM Hepes pH7.5, 1 mM DTT, 0.02% Brij35, 100 mM NaCl, Histone H1 (1 mg/ml), 10 mM magnesium acetate and 0.02 mM [^33P-γ-ATP](500-1000 cpm/pmole) and incubated for 30 min at room temperature. Assays were stopped by addition of 5 μl of 0.5 M (3%) orthophosphoric acid and then harvested onto P81 Unifilter plates and washed with 50 mM orthophosphoric acid. The filter plates were then counted in a scintillation counter.
The results in Table 3 are expressed as percentage of controls with DMSO alone (mean of duplicates ±the standard deviation from the mean).

[1] = molecular target: T1, PI3Kγ (purified recombinant p101/p110γ protein) (Homo sapiens, UniProt P48736); assay: PI3Kγ In Vitro Kinase Assay; assay type: biochemical; conditions: final ATP 20 μM, 25 μM PIP2, G protein β1/γ2 subunits, 20 minutes at room temperature
T1 construct: HA; made in house; host or cells: Spodoptera frugiperda Sf9 cells (baculovirus co-infection)
T1 sequence (P48736 whole entry, species assumed): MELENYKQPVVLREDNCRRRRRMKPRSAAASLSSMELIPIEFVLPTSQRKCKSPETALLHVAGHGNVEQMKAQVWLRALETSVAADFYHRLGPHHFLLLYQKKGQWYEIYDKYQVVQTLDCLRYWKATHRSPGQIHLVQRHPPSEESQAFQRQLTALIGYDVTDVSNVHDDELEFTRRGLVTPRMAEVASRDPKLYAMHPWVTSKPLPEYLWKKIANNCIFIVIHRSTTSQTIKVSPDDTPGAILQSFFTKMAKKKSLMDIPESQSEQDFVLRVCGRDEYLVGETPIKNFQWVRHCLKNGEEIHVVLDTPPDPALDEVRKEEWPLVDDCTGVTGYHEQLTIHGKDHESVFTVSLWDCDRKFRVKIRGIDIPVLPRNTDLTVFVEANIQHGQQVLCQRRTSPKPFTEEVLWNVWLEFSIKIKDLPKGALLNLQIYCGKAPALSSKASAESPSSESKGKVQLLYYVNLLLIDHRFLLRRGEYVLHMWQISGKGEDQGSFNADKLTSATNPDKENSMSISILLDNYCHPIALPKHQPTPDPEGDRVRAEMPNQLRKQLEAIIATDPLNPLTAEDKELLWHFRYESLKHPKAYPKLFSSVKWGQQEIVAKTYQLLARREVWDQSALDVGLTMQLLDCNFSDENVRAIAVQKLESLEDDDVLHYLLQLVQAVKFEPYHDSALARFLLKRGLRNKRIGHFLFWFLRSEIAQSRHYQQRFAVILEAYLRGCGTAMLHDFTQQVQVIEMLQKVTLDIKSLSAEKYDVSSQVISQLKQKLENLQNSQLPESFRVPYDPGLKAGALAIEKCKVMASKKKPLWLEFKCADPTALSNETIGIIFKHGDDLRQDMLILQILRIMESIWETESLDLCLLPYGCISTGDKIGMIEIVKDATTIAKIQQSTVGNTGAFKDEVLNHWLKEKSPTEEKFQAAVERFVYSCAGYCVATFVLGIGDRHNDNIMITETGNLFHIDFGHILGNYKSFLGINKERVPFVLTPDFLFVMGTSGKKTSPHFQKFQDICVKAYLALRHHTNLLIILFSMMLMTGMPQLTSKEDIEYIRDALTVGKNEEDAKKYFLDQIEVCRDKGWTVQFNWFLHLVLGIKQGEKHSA
T1 sequence (Q8WYR1 whole entry partner, species assumed): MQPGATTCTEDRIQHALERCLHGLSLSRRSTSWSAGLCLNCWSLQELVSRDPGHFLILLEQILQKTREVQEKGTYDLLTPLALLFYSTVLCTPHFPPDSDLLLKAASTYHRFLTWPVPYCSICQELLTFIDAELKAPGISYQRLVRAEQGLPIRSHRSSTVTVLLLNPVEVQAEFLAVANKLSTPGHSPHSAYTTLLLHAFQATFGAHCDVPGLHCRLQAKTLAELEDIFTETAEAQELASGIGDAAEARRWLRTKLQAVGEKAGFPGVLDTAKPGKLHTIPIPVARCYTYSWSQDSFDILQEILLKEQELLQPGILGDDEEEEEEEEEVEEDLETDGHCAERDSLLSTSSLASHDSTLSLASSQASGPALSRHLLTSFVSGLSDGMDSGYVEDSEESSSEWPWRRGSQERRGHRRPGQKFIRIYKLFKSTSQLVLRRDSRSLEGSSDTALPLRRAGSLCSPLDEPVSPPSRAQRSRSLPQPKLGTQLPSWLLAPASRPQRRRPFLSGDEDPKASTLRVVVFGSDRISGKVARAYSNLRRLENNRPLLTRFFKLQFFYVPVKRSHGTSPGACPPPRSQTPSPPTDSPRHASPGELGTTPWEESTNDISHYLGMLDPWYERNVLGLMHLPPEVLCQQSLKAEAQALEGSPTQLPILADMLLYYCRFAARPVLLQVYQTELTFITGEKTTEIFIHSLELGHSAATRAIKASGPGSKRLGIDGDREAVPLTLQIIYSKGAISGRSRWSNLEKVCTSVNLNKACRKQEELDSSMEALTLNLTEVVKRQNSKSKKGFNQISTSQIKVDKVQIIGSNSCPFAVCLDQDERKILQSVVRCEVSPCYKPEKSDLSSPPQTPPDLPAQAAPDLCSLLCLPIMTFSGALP
Method: Spodtera frugiperda cells, grown in ESF921 media, were co-infected with baculovirus expressing a glu-tagged p101 and baculovirus expressing an HA-tagged p110γ, at a 3:1 ratio of p101 baculovirus to p110γ baculovirus. Sf9 cells were grown to 1×10^7 total cells/mL in 10 L bioreactors and harvested 48-72 hours post infection. Samples of infected cells were then tested for expression of p101/p110γ PI3 kinase by immunoprecipitation and Western Blot analysis methods (see below).
To purify PI3Kγ, 4 volumes of room temperature hypotonic lysis buffer (1 mM MgCl2, 1 mM DTT, 5 mM EGTA, 1 mM Pefabloc, 0.5 μM aprotinin, 5 μM leupeptin, 2 μM pepstatin, 5 μM E64, pH 8) per gram of cell paste, was poured onto frozen cell pellets with stirring, then lysed in a nitrogen “bomb” at 400 psi (599HC T316, Parr Instrument Co, Moline, Ill.). NaCl was added to 150 mM, and sodium cholate was added to 1% and mixed for another 45 minutes. The lysates were clarified by centrifugation for 25 minutes at 14,000 rpm. The lysates were then loaded over anti-glu-linked Protein-G Sepaharose beads (Covance Research Products, Richmond, Calif.) using 20 mL resin/50 g cell paste. The column was washed with 15 volumes of wash buffer (1 mM DTT, 0.2 mM EGTA, 1 mM Pefabloc, 0.5 μM aprotinin, 5 μM leupeptin, 2 μM pepstatin, 5 μM E64, 150 mM NaCl, 1% sodium cholate, pH 8). PI3Kγ was eluted with 6 column volumes of wash buffer that contain 100 μg/mL of a peptide that competes for binding of the glu tag. The column fractions with the eluted protein (determined by taking OD280 readings) were collected and dialyzed in 0.2 mM EGTA, 1 mM DTT, 1 mM Pefabloc, 5 μM leupeptin, 0.5% sodium cholate, 150 mM NaCl, and 50% glycerol, pH 8. The fractions were stored at −80° C. until further use.
Spodtera frugiperda cells were coinfected with baculovirus expressing a glu-tagged G protein β1 and baculovirus expressing a G protein β2, at a 1:1 ratio of glu-tagged G protein β1 baculovirus to G protein β2 baculovirus. Sf9 cells are grown in 10 L bioreactors and harvested 48-72 hours post infection. Samples of infected cells were tested for G protein β1/β2 expression by Western Blot analysis, as described below. Cell lysates were homogenized and loaded onto a column of glu-tagged beads as in Biological Example 1 and competed off the column with a glu peptide and processed as described in Biological Example 1.
The inhibitory properties of the compounds in Table 1 were assayed in an in vitro PI3K assay. In a 96-well polypropylene plate, each well was spotted with 2 μL of 50 times the desired final concentration of compound in DMSO. Purified recombinant p101/p110γ protein (0.03 μg; ˜2.7 nM) and G protein β1/γ2 subunits (0.09 μg; ˜57.7 nM) for each reaction was combined in the assay buffer (30 mM HEPES, 100 mM NaCl, 1 mM EGTA, and 1 mM DTT). ATP and [γ-^32P-ATP] (0.09 μCi) were added to this mixture so that the final ATP concentration in the reaction was 20 μM. Lipid micelles were formed by sonicating phosphatidylinositol-4,5-diphosphate (PIP2), phosphatidylethanolamine (PE), and Na-cholate in the assay buffer for 10 minutes, adding MgCl2 and incubating on ice for 20 minutes, for final concentrations of 25 μM PIP2, 300 μM PE, 0.02% Na-cholate, and 10 mM MgCl2 in the reaction. The reactions were started by adding equal volumes lipid and enzyme mixture in a total volume of 50 μL, allowed to run for 20 minutes at room temperature, and stopped with 100 μL 75 mM H3PO4. The lipid product was transferred to a glass fiber filter plate and washed with 75 mM H3PO4 several times. The presence of radioactive lipid product (PIP3) was measured by adding Wallac Optiphase mix to each well and counting in a Wallac 1450 Trilux plate reader (PerkinElmer Life Sciences Inc., Boston, Mass. 02118). The IC50 for each compound tested is reported in μM in the Table 2: […]

| % of DMSO control (mean ± S.D.) (CDK2/cyclin A) [%] | IC50 [1] [µM] | Structure (SMILES) |
| --- | --- | --- |
| 101 ± 6 | 0.034 | Cc1nc(Nc2cc(C(=O)O)n(C)c2)nc2c1ccc(=O)n2C1CCOCC1 [Example 19, 1-Methyl-4-[4-methyl-7-oxo-8-(tetrahydro-pyran-4-yl)-7,8-dihydro-pyrido[2,3-d]pyrimidin-2-ylamino]-1H-pyrrole-2-carboxylic acid] |
| 85 ± 9 | 0.009 | Cc1nc(Nc2cc(C(=O)O)n(C)c2)nc2c1cc(F)c(=O)n2C1CCCC1 [Example 24, 4-(8-Cyclopentyl-6-fluoro-4-methyl-7-oxo-7,8-dihydro-pyrido[2,3-d]pyrimidin-2-ylamino)-1-methyl-1H-pyrrole-2-carboxylic acid] |
|  | 0.019 | COC1CCC(n2c(=O)c(F)cc3c(C)nc(Nc4cc(C(=O)O)n(C)c4)nc32)CC1 (stereo not shown) [Example 27, 4-[6-Fluoro-8-(4-methoxy-cyclohexyl)-4-methyl-7-oxo-7,8-dihydro-pyrido[2,3-d]pyrimidin-2-ylamino]-1-methyl-1H-pyrrole-2-carboxylic acid] |
|  | 0.006 | COC(=O)c1cc(Nc2nc(C)c3cc(Cl)c(=O)n(C4CCCC4)c3n2)cn1C [Example 29, 4-(6-Chloro-8-cyclopentyl-4-methyl-7-oxo-7,8-dihydro-pyrido[2,3-d]pyrimidin-2-ylamino)-1-methyl-1H-pyrrole-2-carboxylic acid methyl ester] |
| 104 ± 1 | 0.005 | CCn1c(=O)c(Cl)cc2c(C)nc(Nc3cc(C(=O)O)n(C)c3)nc21 [Example 31, 4-(6-Chloro-8-ethyl-4-methyl-7-oxo-7,8-dihydro-pyrido[2,3-d]pyrimidin-2-ylamino)-1-methyl-1H-pyrrole-2-carboxylic acid] |
|  | 0.021 | Cc1nc(Nc2cc(C(=O)O)n(C)c2)nc2c1ccc(=O)n2C1CCCCC1 [Example 38, 4-[8-Cyclohexyl-4-methyl-7-oxo-7,8-dihydro-pyrido[2,3-d]pyrimidin-2-ylamino]-1-methyl-1H-pyrrole-2-carboxylic acid] |

Second part, the compound before the results:

| Structure (SMILES) | % of DMSO control (mean ± S.D.) (CDK2/cyclin A) [%] | IC50 [1] [µM] |
| --- | --- | --- |
| Cc1nc(Nc2cc(C(=O)O)n(C(C)c3ccccc3)c2)nc2c1cc(F)c(=O)n2C1CCCC1 (stereo not shown) [Example 28, 4-(8-Cyclopentyl-6-fluoro-4-methyl-7-oxo-7,8-dihydro-pyrido[2,3-d]pyrimidin-2-ylamino)-1-(1-phenyl-ethyl)-1H-pyrrole-2-carboxylic acid] |  | 0.015 |
| CCn1c(=O)c(Cl)cc2c(C)nc(Nc3cc(C(=O)OC)n(C)c3)nc21 [Example 30, 4-(6-Chloro-8-ethyl-4-methyl-7-oxo-7,8-dihydro-pyrido[2,3-d]pyrimidin-2-ylamino)-1-methyl-1H-pyrrole-2-carboxylic acid methyl ester] |  | 0.002 |
| COCCn1c(=O)c(Br)cc2c(C)nc(Nc3cc(C(=O)O)n(C)c3)nc21 [Example 32, 4-[6-Bromo-8-(2-methoxy-ethyl)-4-methyl-7-oxo-7,8-dihydro-pyrido[2,3-d]pyrimidin-2-ylamino]-1-methyl-1H-pyrrole-2-carboxylic acid] |  | 0.005 |
| COc1ccc(Cn2c(=O)c(Br)cc3c(C)nc(Nc4cc(C(=O)O)n(C)c4)nc32)cc1 [Example 33, 4-[6-Bromo-8-(4-methoxy-benzyl)-4-methyl-7-oxo-7,8-dihydro-pyrido[2,3-d]pyrimidin-2-ylamino]-1-methyl-1H-pyrrole-2-carboxylic acid] |  | 0.017 |
| COCCn1c(=O)c(-c2cccc(OCc3ccccc3)c2)cc2c(C)nc(Nc3cc(C(=O)OC)n(C)c3)nc21 [Example 34, 4-[6-(3-Benzyloxy-phenyl)-8-(2-methoxy-ethyl)-4-methyl-7-oxo-7,8-dihydro-pyrido[2,3-d]pyrimidin-2-ylamino]-1-methyl-1H-pyrrole-2-carboxylic acid methyl ester] |  | 0.305 |
| Cc1nc(Nc2cc(C(=O)O)n(C)c2)nc2c1cc(-c1cccc(OCc3ccccc3)c1)c(=O)n2Cc1ccc(F)cc1 [Example 35, 4-[6-(3-Benzyloxy-phenyl)-8-(4-fluoro-benzyl)-4-methyl-7-oxo-7,8-dihydro-pyrido[2,3-d]pyrimidin-2-ylamino]-1-methyl-1H-pyrrole-2-carboxylic acid] |  | 0.34 |
| COc1ccc(Cn2c(=O)c(C)cc3c(C)nc(Nc4cc(C(=O)O)n(C)c4)nc32)cc1 [Example 36, 4-[8-(4-Methoxy-benzyl)-4,6-dimethyl-7-oxo-7,8-dihydro-pyrido[2,3-d]pyrimidin-2-ylamino]-1-methyl-1H-pyrrole-2-carboxylic acid] |  | 0.047 |

Source: patent US20080255162A1, “Pyrrolyl Substituted Pyrido[2,3-D]Pyrimidin-7-Ones and Derivatives Thereof as Therapeutic Agents” (WARNER-LAMBERT COMPANY LLC, priority 2004, published 2008)
